In publication PMC4800810 (Biomacromolecules, 2015):

What was measured:
[1] = solubility in water; format: physicochemical; conditions: 6BIO by itself, result in words
[2] = 24 h organ biodistribution in mice with femoral fracture; format: in vivo, CD4 Swiss mice; conditions: i.v.

In the case of 6’-bromoindirubin-3’-oxime [6BIO], the solubility in water [1] was “only sparingly soluble in water”, the “drug uptake in the fractured femur over the healthy femur” value ([2]; 125I-labelled analogues) was “no statistical difference” and the “accumulation in the lungs, liver, and spleen” value ([2]; 125I-labelled, result in words) was “high accumulation”.
